# PubChem BioAssay (NCI)
#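 Briefly, cells in 96-well plates were exposed to five compound concentrations for 48 h, and endpoints were estimated by linear interpolation. The concentration for 50% growth inhibition is given as GI50. TGI denotes the concentration required for complete inhibition of growth.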
# Legend:
# Assay in all cases: DTP human tumour cell line panel, 48 h
# 786-0 renal = test system: 786-0 renal
# A498 renal = test system: A498 renal
# A549 NSCLC = test system: A549 NSCLC
# ACHN renal = test system: ACHN renal
# BT-549 breast = test system: BT-549 breast
# CAKI-1 renal = test system: CAKI-1 renal
# CCRF-CEM leukemia = test system: CCRF-CEM leukemia
# COLO 205 colon = test system: COLO 205 colon
# DU-145 prostate = test system: DU-145 prostate
# EKVX NSCLC = test system: EKVX NSCLC
# HCC-2998 colon = test system: HCC-2998 colon
# HCT-116 colon = test system: HCT-116 colon
# HCT-15 colon = test system: HCT-15 colon
# HL-60(TB) leukemia = test system: HL-60(TB) leukemia
# HOP-62 NSCLC = test system: HOP-62 NSCLC
# HOP-92 NSCLC = test system: HOP-92 NSCLC
# HS 578T breast = test system: HS 578T breast
# HT29 colon = test system: HT29 colon
# IGROV1 ovarian = test system: IGROV1 ovarian
# K-562 leukemia = test system: K-562 leukemia
# KM12 colon = test system: KM12 colon
# LOX IMVI melanoma = test system: LOX IMVI melanoma
# M14 melanoma = test system: M14 melanoma
# MALME-3M melanoma = test system: MALME-3M melanoma
# MCF7 breast = test system: MCF7 breast
# MDA-MB-231 breast = test system: MDA-MB-231 breast
# MDA-MB-435 = test system: MDA-MB-435
# MOLT-4 leukemia = test system: MOLT-4 leukemia
# NCI-H226 lung = test system: NCI-H226 lung
# NCI-H460 lung = test system: NCI-H460 lung
# NCI-H522 lung = test system: NCI-H522 lung
# NCI/ADR-RES ovarian = test system: NCI/ADR-RES ovarian
# OVCAR-3 ovarian = test system: OVCAR-3 ovarian
# OVCAR-4 ovarian = test system: OVCAR-4 ovarian
# OVCAR-5 ovarian = test system: OVCAR-5 ovarian
# OVCAR-8 ovarian = test system: OVCAR-8 ovarian
# PC-3 prostate = test system: PC-3 prostate
# RPMI-8226 leukemia = test system: RPMI-8226 leukemia
# RXF 393 renal = test system: RXF 393 renal
# SF-268 CNS = test system: SF-268 CNS
# SF-295 CNS = test system: SF-295 CNS
# SF-539 CNS = test system: SF-539 CNS
# SK-MEL-2 melanoma = test system: SK-MEL-2 melanoma
# SK-MEL-28 melanoma = test system: SK-MEL-28 melanoma
# SK-MEL-5 melanoma = test system: SK-MEL-5 melanoma
# SK-OV-3 ovarian = test system: SK-OV-3 ovarian
# SN12C renal = test system: SN12C renal
# SNB-19 CNS = test system: SNB-19 CNS
# SNB-75 CNS = test system: SNB-75 CNS
# SR leukemia = test system: SR leukemia
# SW-620 colon = test system: SW-620 colon
# T-47D breast = test system: T-47D breast
# TK-10 renal = test system: TK-10 renal
# U251 CNS = test system: U251 CNS
# UACC-257 melanoma = test system: UACC-257 melanoma
# UACC-62 melanoma = test system: UACC-62 melanoma
# UO-31 renal = test system: UO-31 renal
smiles,measurement,setting,value
CCOc1ccc([C@H]2C(C(=O)c3ccc(Cl)cc3)C3(N[C@@H]2c2ccccc2)C(=O)Nc2ccc(Br)cc23)cc1 (some centres undefined),GI50,786-0 renal,15.4 µM
same,TGI,786-0 renal,30.1 µM
same,GI50,A498 renal,14.3 µM
same,TGI,A498 renal,28.8 µM
same,GI50,A549 NSCLC,13.9 µM
same,TGI,A549 NSCLC,28.9 µM
same,GI50,ACHN renal,15 µM
same,TGI,ACHN renal,28.6 µM
same,GI50,BT-549 breast,15.6 µM
same,TGI,BT-549 breast,29.9 µM
same,GI50,CAKI-1 renal,13.1 µM
same,TGI,CAKI-1 renal,26.2 µM
same,GI50,CCRF-CEM leukemia,23.1 µM
same,TGI,CCRF-CEM leukemia,72 µM
same,GI50,COLO 205 colon,15 µM
same,TGI,COLO 205 colon,30.1 µM
same,GI50,DU-145 prostate,17.7 µM
same,TGI,DU-145 prostate,38 µM
same,GI50,EKVX NSCLC,15.9 µM
same,TGI,EKVX NSCLC,35.4 µM
same,GI50,HCC-2998 colon,15.7 µM
same,TGI,HCC-2998 colon,31 µM
same,GI50,HCT-116 colon,14.6 µM
same,TGI,HCT-116 colon,29.7 µM
same,GI50,HCT-15 colon,16.1 µM
same,TGI,HCT-15 colon,35.3 µM
same,GI50,HL-60(TB) leukemia,23.1 µM
same,TGI,HL-60(TB) leukemia,63.1 µM
same,GI50,HOP-62 NSCLC,14.3 µM
same,TGI,HOP-62 NSCLC,28 µM
same,GI50,HOP-92 NSCLC,7.75 µM
same,TGI,HOP-92 NSCLC,21.8 µM
same,GI50,HS 578T breast,17.9 µM
same,TGI,HS 578T breast,47.8 µM
same,GI50,HT29 colon,14.9 µM
same,TGI,HT29 colon,31 µM
same,GI50,IGROV1 ovarian,14.2 µM
same,TGI,IGROV1 ovarian,31.6 µM
same,GI50,K-562 leukemia,25.3 µM
same,TGI,K-562 leukemia,> 100 µM
same,GI50,KM12 colon,17.1 µM
same,TGI,KM12 colon,49.1 µM
same,GI50,LOX IMVI melanoma,15.7 µM
same,TGI,LOX IMVI melanoma,30.4 µM
same,GI50,M14 melanoma,15 µM
same,TGI,M14 melanoma,30.1 µM
same,GI50,MALME-3M melanoma,14.7 µM
same,TGI,MALME-3M melanoma,28.5 µM
same,GI50,MCF7 breast,14 µM
same,TGI,MCF7 breast,36.7 µM
same,GI50,MDA-MB-231 breast,15.8 µM
same,TGI,MDA-MB-231 breast,31.8 µM
same,GI50,MDA-MB-435,15.9 µM
same,TGI,MDA-MB-435,30.3 µM
same,GI50,MOLT-4 leukemia,18.2 µM
same,TGI,MOLT-4 leukemia,73.8 µM
same,GI50,NCI-H226 lung,15.1 µM
same,TGI,NCI-H226 lung,32.6 µM
same,GI50,NCI-H460 lung,16.7 µM
same,TGI,NCI-H460 lung,35.5 µM
same,GI50,NCI-H522 lung,14.2 µM
same,TGI,NCI-H522 lung,28.2 µM
same,GI50,NCI/ADR-RES ovarian,19.8 µM
same,TGI,NCI/ADR-RES ovarian,44.8 µM
same,GI50,OVCAR-3 ovarian,17.5 µM
same,TGI,OVCAR-3 ovarian,38 µM
same,GI50,OVCAR-4 ovarian,14.3 µM
same,TGI,OVCAR-4 ovarian,28.1 µM
same,GI50,OVCAR-5 ovarian,14.6 µM
same,TGI,OVCAR-5 ovarian,29.4 µM
same,GI50,OVCAR-8 ovarian,16.4 µM
same,TGI,OVCAR-8 ovarian,32 µM
same,GI50,PC-3 prostate,13.8 µM
same,TGI,PC-3 prostate,27.6 µM
same,GI50,RPMI-8226 leukemia,22 µM
same,TGI,RPMI-8226 leukemia,70.8 µM
same,GI50,RXF 393 renal,13.1 µM
same,TGI,RXF 393 renal,26.1 µM
same,GI50,SF-268 CNS,17.3 µM
same,TGI,SF-268 CNS,39.4 µM
same,GI50,SF-295 CNS,16.1 µM
same,TGI,SF-295 CNS,30.3 µM
same,GI50,SF-539 CNS,15.9 µM
same,TGI,SF-539 CNS,30.5 µM
same,GI50,SK-MEL-2 melanoma,14.1 µM
same,TGI,SK-MEL-2 melanoma,27.9 µM
same,GI50,SK-MEL-28 melanoma,16.1 µM
same,TGI,SK-MEL-28 melanoma,30.4 µM
same,GI50,SK-MEL-5 melanoma,18 µM
same,TGI,SK-MEL-5 melanoma,32.7 µM
same,GI50,SK-OV-3 ovarian,14.5 µM
same,TGI,SK-OV-3 ovarian,28.3 µM
same,GI50,SN12C renal,15.2 µM
same,TGI,SN12C renal,31.2 µM
same,GI50,SNB-19 CNS,15.2 µM
same,TGI,SNB-19 CNS,29.7 µM
same,GI50,SNB-75 CNS,11.3 µM
same,TGI,SNB-75 CNS,23.7 µM
same,GI50,SR leukemia,15.5 µM
same,TGI,SR leukemia,44 µM
same,GI50,SW-620 colon,18.5 µM
same,TGI,SW-620 colon,40.9 µM
same,GI50,T-47D breast,14.2 µM
same,TGI,T-47D breast,35.2 µM
same,GI50,TK-10 renal,13.7 µM
same,TGI,TK-10 renal,28.8 µM
same,GI50,U251 CNS,15 µM
same,TGI,U251 CNS,29.8 µM
same,GI50,UACC-257 melanoma,14.7 µM
same,TGI,UACC-257 melanoma,29 µM
same,GI50,UACC-62 melanoma,13.3 µM
same,TGI,UACC-62 melanoma,27.1 µM
same,GI50,UO-31 renal,12.9 µM
same,TGI,UO-31 renal,25.6 µM
